Measured values as given in patent US10543212B2, “Substituted amines for treating cardiac diseases” (Cardurion Pharmaceuticals, LLC, priority 2017, dated 2020).

Target: T1, Full-length, GST-tagged, human CaMKIIδ (Homo sapiens, UniProt Q13557)
T1 construct: Full-Length, Glutathione-S-Transferase(GST)-Tagged, Human CaMKIIδ was purchased from Carna Biosciences; purchased Carna Biosciences 02-111
Experiment: CaMKIIδ binding assay (TR-FRET with BODIPY-labeled probe ligand)
Summary of the method: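 TR-FRET probe-displacement binding: 0.5 nM GST-CaMKIIδ with 10 μg/mL calmodulin, 1 mM CaCl2, 0.21 nM Tb-anti-GST Ab and 300 nM BODIPY probe in HEPES pH 7.6 buffer. Eight-point 4-fold dilutions, 1 hr at room temperature. IC50 from logistic fit; 100% inhibition defined by 3 μM parent compound.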

[1] = CaMKIIδ binding assay, results of Table 2
[2] = Table 2, activity class for CaMKIIδ

T1 sequence (Q13557 1-478 isoform Q13557-12): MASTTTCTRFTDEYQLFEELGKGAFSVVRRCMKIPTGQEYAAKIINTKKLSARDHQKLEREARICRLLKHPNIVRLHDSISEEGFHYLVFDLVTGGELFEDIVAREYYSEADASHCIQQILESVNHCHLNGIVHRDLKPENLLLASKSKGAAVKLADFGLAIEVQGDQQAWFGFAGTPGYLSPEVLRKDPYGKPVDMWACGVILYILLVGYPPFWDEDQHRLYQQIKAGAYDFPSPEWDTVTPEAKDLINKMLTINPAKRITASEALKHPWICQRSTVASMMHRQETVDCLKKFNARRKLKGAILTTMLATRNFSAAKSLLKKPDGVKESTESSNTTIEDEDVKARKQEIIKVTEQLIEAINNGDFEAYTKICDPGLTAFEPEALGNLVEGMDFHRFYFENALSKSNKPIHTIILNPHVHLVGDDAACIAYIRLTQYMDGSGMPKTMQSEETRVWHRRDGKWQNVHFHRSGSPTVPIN

Structure (SMILES) | IC50 [1] [µM] | IC50 [2] [µM] | other results
COc1cc2c(cc1Nc1ncc(-c3ccc(Cl)c(O[C@@H](C)Cn4cnnn4)c3)cn1)CN(c1ccnc(C)n1)CC2 [Example 504, (S)-N-(5-(3-((1-(1H-tetrazol-1-yl)propan-2-yl)oxy)-4-chlorophenyl)pyrimidin-2-yl)-6-methoxy-2-(2-methylpyrimidin-4-yl)-1,2,3,4-tetrahydroisoquinolin-7-amine] | 0.01 to 0.1 | – | –
C[C@@H](Cn1cnnn1)Oc1cc(-c2cnc(Nc3cc4c(cc3Cl)CCN(C(=O)C(F)(F)F)CC4)nc2)ccc1C#N [Example 525, (S)-2-((1-(1H-tetrazol-1-yl)propan-2-yl)oxy)-4-(2-((8-chloro-3-(2,2,2-trifluoroacetyl)-2,3,4,5-tetrahydro-1H-benzo[d]azepin-7-yl)amino)pyrimidin-5-yl)benzonitrile] | 0.01 to 0.1 | – | –
COc1cc2c(cc1Nc1ncc(-c3ccc(Cl)c(O[C@@H](C)Cn4cnnn4)c3)cn1)CCN(CCO)C2 [Example 480, (S)-2-(6-((5-(3-((1-(1H-tetrazol-1-yl)propan-2-yl)oxy)-4-chlorophenyl)pyrimidin-2-yl)amino)-7-methoxy-3,4-dihydroisoquinolin-2(1H)-yl)ethan-1-ol] | < 0.01 | – | –
C[C@@H](Cn1cnnn1)Oc1cc(-c2cnc(Nc3ccn(C(C)(C)C)n3)nc2)ccc1Cl [Example 715, (S)-5-(3-((1-(1H-tetrazol-1-yl)propan-2-yl)oxy)-4-chlorophenyl)-N-(1-(tert-butyl)-1H-pyrazol-3-yl)pyrimidin-2-amine] | – | ≥ 0.1 | –
C[C@@H](Cn1cnnn1)Oc1cc(-c2cnc(Nc3cn(C4CCN(C5COC5)C4)nc3C(F)(F)F)nc2)ccc1Cl (stereo partly drawn) [Example 619, 5-(3-(((S)-1-(1H-tetrazol-1-yl)propan-2-yl)oxy)-4-chlorophenyl)-N-(1-(1-(oxetan-3-yl)pyrrolidin-3-yl)-3-(trifluoromethyl)-1H-pyrazol-4-yl)pyrimidin-2-amine] | – | 0.01 to 0.1 | –
COc1cc2c(cc1Nc1ncc(-c3ccc(Cl)c(O[C@@H](C)Cn4cnnn4)c3)cn1)CN(CCO)CC2 [Example 511, (S)-2-(7-((5-(3-((1-(1H-tetrazol-1-yl)propan-2-yl)oxy)-4-chlorophenyl)pyrimidin-2-yl)amino)-6-methoxy-3,4-dihydroisoquinolin-2(1H)-yl)ethan-1-ol] | < 0.01 | – | –
C[C@@H](Cn1cnnn1)Oc1cc(-c2cnc(Nc3cn([C@@H]4C[C@H]5CC[C@@H](C4)N5C(=O)OC(C)(C)C)nc3C(F)(F)F)nc2)ccc1Cl [Example 701, tert-butyl (1R,3s,5S)-3-(4-((5-(3-(((S)-1-(1H-tetrazol-1-yl)propan-2-yl)oxy)-4-chlorophenyl)pyrimidin-2-yl)amino)-3-(trifluoromethyl)-1H-pyrazol-1-yl)-8-azabicyclo[3.2.1]octane-8-carboxylate] | – | ≥ 0.1 | –
COc1cc2c(cc1Nc1ncc(-c3ccc(C#N)c(O[C@@H](C)Cn4cnnn4)c3)cn1)CCN(C(=O)C(F)(F)F)C2 [Example 458, (S)-2-((1-(1H-tetrazol-1-yl)propan-2-yl)oxy)-4-(2-((7-methoxy-2-(2,2,2-trifluoroacetyl)-1,2,3,4-tetrahydroisoquinolin-6-yl)amino)pyrimidin-5-yl)benzonitrile] | 0.01 to 0.1 | – | –
CC(C)c1nn(C2CCC(=O)CC2)cc1Nc1ncc(-c2ccc(Cl)c(O[C@@H](C)Cn3cnnn3)c2)cn1 [Example 841, (S)-4-(4-((5-(3-((1-(1H-tetrazol-1-yl)propan-2-yl)oxy)-4-chlorophenyl)pyrimidin-2-yl)amino)-3-isopropyl-1H-pyrazol-1-yl)cyclohexan-1-one] | – | – | IC50 (Table 2, CaMKIIδ binding assay, activity given as class A/B/C): < 0.01 µM
C[C@@H](Cn1cnnn1)Oc1cc(-c2cnc(Nc3cn(C(C)(C)CO)nc3OCC(F)(F)F)nc2)ccc1Cl [Example 883, (S)-2-(4-((5-(3-((1-(1H-tetrazol-1-yl)propan-2-yl)oxy)-4-chlorophenyl)pyrimidin-2-yl)amino)-3-(2,2,2-trifluoroethoxy)-1H-pyrazol-1-yl)-2-methylpropan-1-ol] | – | – | IC50 (CaMKIIδ binding assay, activity class per Table 2): < 0.01 µM
